From ChEMBL document CHEMBL1208701, “Structure-activity relationship of indoline-2-carboxylic acid N-(substituted)phenylamide derivatives” (Bioorg Med Chem Lett, 2010)

Experiments:
[1] = test system: RAW264.7; experiment: Inhibition of LPS-induced NF-kappaB transcriptional activity in mouse RAW264.7 cells at 100 uM; assay type: cell-based
[2] = Inhibition of LPS-induced NF-kappaB transcriptional activity in mouse RAW264.7 cells; assay type: cell-based
[3] = test system: NCI-H23; experiment: Cytotoxicity against human NCI-H23 cells; assay type: functional
[4] = test system: PC-3; experiment: Cytotoxicity against human PC3 cells; assay type: functional
[5] = test system: ACHN; experiment: Cytotoxicity against human ACHN cells; assay type: functional
[6] = test system: HCT-15; experiment: Cytotoxicity against human HCT15 cells; assay type: functional
[7] = test system: MDA-MB-231; experiment: Cytotoxicity against human MDA-MB-231 cells; assay type: functional
[8] = test system: NUGC-3; experiment: Cytotoxicity against human NUGC3 cells; assay type: functional

CC(C)(C)OC(=O)N1c2ccccc2CC1C(=O)Nc1cccc(O)c1 (stereo not given)
inhibition [1]: 75%
IC50 [2]: 58.7 µM

CC(C)(C)OC(=O)N1c2ccccc2CC1C(=O)Nc1ccc(Cl)cc1 (stereo not given)
inhibition [1]: 31%
IC50 [2]: > 100 µM

COc1cc2c(cc1O)CCC(C(=O)Nc1ccccc1)O2 (stereo not given)
inhibition [1]: 90%
IC50 [2]: 40.1 µM
GI50 [3]: 9.32 µM

COc1ccc(OC)c(NC(=O)C2Cc3ccccc3N2C(=O)OC(C)(C)C)c1 (stereo not given)
inhibition [1]: 76%

COc1ccc(NC(=O)C2Cc3ccccc3N2C(=O)OC(C)(C)C)cc1 (stereo not given)
inhibition [1]: 29%
IC50 [2]: > 100 µM

Cc1cc(C)cc(NC(=O)C2Cc3ccccc3N2)c1 (stereo not given)
inhibition [1]: 56%
IC50 [2]: 85 µM

CC(C)(C)C(=O)N1c2ccccc2CC1C(=O)Nc1ccc(C(F)(F)F)cc1 (stereo not given)
IC50 [2]: 12.7 µM
GI50 [3]: 3.65 µM
GI50 [4]: 3.89 µM
GI50 [5]: 5.63 µM
GI50 [6]: 5.54 µM
GI50 [7]: 7.31 µM
GI50 [8]: 6.58 µM

COc1ccc(OC)c(NC(=O)C2Cc3ccccc3N2)c1 (stereo not given)
inhibition [1]: 47%
IC50 [2]: > 100 µM

Cc1ccc(NC(=O)C2Cc3ccccc3N2)cc1C (stereo not given)
inhibition [1]: 87%
IC50 [2]: 43.3 µM

CC(C)(C)OC(=O)N1c2ccccc2CC1C(=O)Nc1ccccc1Cl (stereo not given)
inhibition [1]: 50%

Cc1ccc(NC(=O)C2Cc3ccccc3N2C(=O)OC(C)(C)C)cc1 (stereo not given)
inhibition [1]: 37%
IC50 [2]: > 100 µM

Cc1ccc(C)c(NC(=O)C2Cc3ccccc3N2C(=O)OC(C)(C)C)c1 (stereo not given)
inhibition [1]: 75%
IC50 [2]: 50 µM

Cc1ccc(S(=O)(=O)N2c3ccccc3CC2C(=O)Nc2ccc(C(F)(F)F)cc2)cc1 (stereo not given)
IC50 [2]: > 100 µM
GI50 [3]: 8.97 µM
GI50 [4]: 6.68 µM
GI50 [5]: > 10 µM
GI50 [6]: > 10 µM
GI50 [7]: > 10 µM
GI50 [8]: > 10 µM

O=C(Nc1ccccc1Cl)C1Cc2ccccc2N1 (stereo not given)
inhibition [1]: 62%
IC50 [2]: 69.7 µM

CC(=O)N1c2ccccc2CC1C(=O)Nc1cc(Cl)cc(Cl)c1 (stereo not given)
IC50 [2]: 34.1 µM
GI50 [3]: 7.68 µM
GI50 [4]: 6.37 µM
GI50 [5]: > 10 µM
GI50 [6]: 8.68 µM
GI50 [7]: > 10 µM
GI50 [8]: 7.86 µM

Cc1ccc(NC(=O)C2Cc3ccccc3N2)cc1 (stereo not given)
inhibition [1]: 41%
IC50 [2]: > 100 µM

O=C(Nc1cc(Cl)cc(Cl)c1)C1Cc2ccccc2N1 (stereo not given)
inhibition [1]: 98%
GI50 [3]: 12.3 µM
GI50 [4]: 2.53 µM

CC(C)(C)OC(=O)N1c2ccccc2CC1C(=O)Nc1cc(Cl)ccc1Cl (stereo not given)
inhibition [1]: 71%
IC50 [2]: 45.9 µM

COc1ccc(NC(=O)C2Cc3ccccc3N2)cc1OC (stereo not given)
inhibition [1]: 15%
IC50 [2]: > 100 µM

CC(C)(C)OC(=O)N1c2ccccc2CC1C(=O)Nc1ccc(Cl)c(Cl)c1 (stereo not given)
inhibition [1]: 97%
IC50 [2]: 12.6 µM
GI50 [3]: 3.19 µM
GI50 [4]: 4.66 µM

Cc1ccc(C)c(NC(=O)C2Cc3ccccc3N2)c1 (stereo not given)
inhibition [1]: 47%
IC50 [2]: > 100 µM

COc1ccc(NC(=O)C2Cc3ccccc3N2)cc1 (stereo not given)
inhibition [1]: 37%
IC50 [2]: > 100 µM

COc1ccccc1NC(=O)C1Cc2ccccc2N1 (stereo not given)
inhibition [1]: 60%
IC50 [2]: 79.2 µM

CC(C)(C)OC(=O)N1c2ccccc2CC1C(=O)Nc1ccccc1C(F)(F)F (stereo not given)
inhibition [1]: 38%
IC50 [2]: > 100 µM

Cc1cccc(NC(=O)C2Cc3ccccc3N2)c1 (stereo not given)
inhibition [1]: 29%
IC50 [2]: > 100 µM

O=C(Nc1ccccc1C(F)(F)F)C1Cc2ccccc2N1 (stereo not given)
inhibition [1]: 61%
IC50 [2]: 79.4 µM

O=C(Nc1cccc(O)c1)C1Cc2ccccc2N1 (stereo not given)
inhibition [1]: 30%
IC50 [2]: > 100 µM

COc1cc(NC(=O)C2Cc3ccccc3N2C(=O)OC(C)(C)C)cc(OC)c1 (stereo not given)
inhibition [1]: 88%

Cc1ccccc1NC(=O)C1Cc2ccccc2N1 (stereo not given)
inhibition [1]: 39%
IC50 [2]: > 100 µM

O=C(Nc1ccc(C(F)(F)F)cc1)C1Cc2ccccc2N1 (stereo not given)
inhibition [1]: 56%
IC50 [2]: 79.2 µM

O=C(Nc1ccc([N+](=O)[O-])cc1)C1Cc2ccccc2N1 (stereo not given)
inhibition [1]: 41%
IC50 [2]: > 100 µM

COc1cccc(NC(=O)C2Cc3ccccc3N2)c1 (stereo not given)
inhibition [1]: 64%

O=C(Nc1ccccc1O)C1Cc2ccccc2N1 (stereo not given)
inhibition [1]: 37%
IC50 [2]: > 100 µM

CC(C)(C)OC(=O)N1c2ccccc2CC1C(=O)Nc1cc(C(F)(F)F)cc(C(F)(F)F)c1 (stereo not given)
IC50 [2]: 14.9 µM
GI50 [3]: 1.52 µM
GI50 [4]: 0.838 µM

CC(C)(C)OC(=O)N1c2ccccc2CC1C(=O)Nc1ccccc1[N+](=O)[O-] (stereo not given)
inhibition [1]: 63%

CC(C)(C)OC(=O)N1c2ccccc2CC1C(=O)Nc1ccc([N+](=O)[O-])cc1 (stereo not given)
inhibition [1]: > 100%
GI50 [3]: 2.52 µM
GI50 [4]: 2.79 µM

O=C(Nc1ccccc1[N+](=O)[O-])C1Cc2ccccc2N1 (stereo not given)
inhibition [1]: 41%
IC50 [2]: > 100 µM

CC(C)(C)OC(=O)N1c2ccccc2CC1C(=O)Nc1cccc([N+](=O)[O-])c1 (stereo not given)
inhibition [1]: 94%
IC50 [2]: 14.1 µM

O=C(Nc1ccc(O)cc1)C1Cc2ccccc2N1 (stereo not given)
inhibition [1]: 63%
IC50 [2]: 66.2 µM

CC(C)(C)OC(=O)N1c2ccccc2CC1C(=O)Nc1ccccc1 (stereo not given)
inhibition [1]: 30%
IC50 [2]: > 100 µM

CC(=O)N1c2ccccc2CC1C(=O)Nc1ccc(C(F)(F)F)cc1 (stereo not given)
IC50 [2]: > 100 µM
GI50 [3]: > 10 µM
GI50 [4]: > 10 µM
GI50 [5]: > 10 µM
GI50 [6]: > 10 µM
GI50 [7]: > 10 µM
GI50 [8]: > 10 µM

O=C(Nc1cccc(C(F)(F)F)c1)C1Cc2ccccc2N1 (stereo not given)
inhibition [1]: 99%
IC50 [2]: 46 µM
GI50 [3]: 4.96 µM
GI50 [4]: 4.24 µM

CC(C)(C)OC(=O)N1c2ccccc2CC1C(=O)Nc1cccc(Cl)c1 (stereo not given)
inhibition [1]: > 100%
GI50 [3]: 3.23 µM

COc1ccc(NC(=O)C2Cc3ccccc3N2C(=O)OC(C)(C)C)cc1OC (stereo not given)
inhibition [1]: 65%
IC50 [2]: 52.2 µM

CCCCCCCCC(=O)N1c2ccccc2CC1C(=O)Nc1cc(Cl)cc(Cl)c1 (stereo not given)
IC50 [2]: 12.6 µM
GI50 [3]: 1.28 µM
GI50 [4]: 1.61 µM
GI50 [5]: 1.89 µM
GI50 [6]: 1.73 µM
GI50 [7]: 3.57 µM
GI50 [8]: 1.52 µM

CC(C)(C)OC(=O)N1c2ccccc2CC1C(=O)Nc1ccc(O)cc1 (stereo not given)
inhibition [1]: 42%
IC50 [2]: > 100 µM

O=C(Nc1cccc([N+](=O)[O-])c1)C1Cc2ccccc2N1 (stereo not given)
inhibition [1]: 49%
IC50 [2]: > 100 µM

O=C(Nc1cccc(Cl)c1)C1Cc2ccccc2N1 (stereo not given)
inhibition [1]: 63%

Cc1ccccc1NC(=O)C1Cc2ccccc2N1C(=O)OC(C)(C)C (stereo not given)
inhibition [1]: 68%
IC50 [2]: 62.5 µM

CC(C)(C)OC(=O)N1c2ccccc2CC1C(=O)Nc1cc(Cl)cc(Cl)c1 (stereo not given)
IC50 [2]: 10.1 µM
GI50 [3]: 3.39 µM
GI50 [4]: 1.68 µM

CC(C)(C)OC(=O)N1c2ccccc2CC1C(=O)Nc1ccc(C(F)(F)F)cc1 (stereo not given)
inhibition [1]: > 100%
IC50 [2]: 12 µM
GI50 [3]: 3.21 µM
GI50 [4]: 2.02 µM

COc1ccccc1NC(=O)C1Cc2ccccc2N1C(=O)OC(C)(C)C (stereo not given)
inhibition [1]: 76%

Cc1ccc(NC(=O)C2Cc3ccccc3N2C(=O)OC(C)(C)C)cc1C (stereo not given)
inhibition [1]: 64%

O=C(Nc1cc(Cl)cc(Cl)c1)C1Cc2ccccc2N1C(=O)c1ccccc1 (stereo not given)
IC50 [2]: 46.5 µM
GI50 [3]: 4.28 µM
GI50 [4]: 6.84 µM
GI50 [5]: 8.26 µM
GI50 [7]: 6.42 µM
GI50 [8]: 7.97 µM

COc1cccc2c1C(=O)c1c(O)c3c(c(O)c1C2=O)C[C@@](O)(C(=O)CO)C[C@@H]3O[C@H]1C[C@H](N)[C@H](O)[C@H](C)O1 [DOXORUBICIN]
GI50 [3]: 0.178 µM
GI50 [4]: 0.317 µM
GI50 [5]: 0.182 µM
GI50 [6]: 2.18 µM
GI50 [7]: 0.194 µM
GI50 [8]: 0.202 µM

O=C(Nc1cc(Cl)ccc1Cl)C1Cc2ccccc2N1 (stereo not given)
inhibition [1]: 34%
IC50 [2]: > 100 µM

CCCCCCCCC(=O)N1c2ccccc2CC1C(=O)Nc1ccc(C(F)(F)F)cc1 (stereo not given)
IC50 [2]: > 100 µM
GI50 [3]: 1.62 µM
GI50 [4]: 1.86 µM
GI50 [5]: 3.78 µM
GI50 [6]: 2.07 µM
GI50 [7]: > 10 µM
GI50 [8]: 3.45 µM

Cc1cccc(NC(=O)C2Cc3ccccc3N2C(=O)OC(C)(C)C)c1 (stereo not given)
inhibition [1]: 87%

COc1cccc(NC(=O)C2Cc3ccccc3N2C(=O)OC(C)(C)C)c1 (stereo not given)
inhibition [1]: 38%
IC50 [2]: > 100 µM

CC(C)(C)OC(=O)N1c2ccccc2CC1C(=O)Nc1ccccc1O (stereo not given)
inhibition [1]: 93%

COc1cc(NC(=O)C2Cc3ccccc3N2)cc(OC)c1 (stereo not given)
inhibition [1]: 41%
IC50 [2]: > 100 µM

Cc1ccc(S(=O)(=O)N2c3ccccc3CC2C(=O)Nc2cc(Cl)cc(Cl)c2)cc1 (stereo not given)
IC50 [2]: > 100 µM
GI50 [3]: 7.53 µM
GI50 [4]: > 10 µM
GI50 [5]: > 10 µM
GI50 [6]: > 10 µM
GI50 [7]: > 10 µM
GI50 [8]: > 10 µM

CC(C)(C)C(=O)N1c2ccccc2CC1C(=O)Nc1cc(Cl)cc(Cl)c1 (stereo not given)
IC50 [2]: 14.5 µM
GI50 [3]: 3.46 µM
GI50 [4]: 4.18 µM
GI50 [5]: 3.68 µM
GI50 [6]: 3.81 µM
GI50 [7]: 4.97 µM
GI50 [8]: 3.35 µM

O=C(Nc1ccc(C(F)(F)F)cc1)C1Cc2ccccc2N1C(=O)c1ccccc1 (stereo not given)
IC50 [2]: 13.5 µM
GI50 [3]: 4.58 µM
GI50 [6]: 5.49 µM
GI50 [8]: 8.72 µM

O=C(Nc1cc(C(F)(F)F)cc(C(F)(F)F)c1)C1Cc2ccccc2N1 (stereo not given)
inhibition [1]: 96%
IC50 [2]: 12 µM
GI50 [3]: 0.648 µM
GI50 [4]: 0.794 µM

O=C(Nc1ccc(Cl)c(Cl)c1)C1Cc2ccccc2N1 (stereo not given)
inhibition [1]: 72%
GI50 [3]: 11.6 µM

O=C(Nc1ccc(Cl)cc1)C1Cc2ccccc2N1 (stereo not given)
inhibition [1]: 62%
IC50 [2]: 70.7 µM

Cc1cc(C)cc(NC(=O)C2Cc3ccccc3N2C(=O)OC(C)(C)C)c1 (stereo not given)
inhibition [1]: 78%
IC50 [2]: 16.6 µM

CC(C)(C)OC(=O)N1c2ccccc2CC1C(=O)Nc1cccc(C(F)(F)F)c1 (stereo not given)
inhibition [1]: > 100%
GI50 [3]: 6.34 µM
GI50 [4]: 3.34 µM

O=C(Nc1ccccc1)C1Cc2ccccc2N1 (stereo not given)
inhibition [1]: 65%
IC50 [2]: 71.6 µM

CC(NC(=O)OC(C)(C)C)C(=O)N1c2ccccc2CC1C(=O)Nc1cc(Cl)cc(Cl)c1 (stereo not given)
IC50 [2]: 5.9 µM
GI50 [3]: 6.71 µM
GI50 [4]: 4.43 µM
GI50 [5]: 5.04 µM
GI50 [6]: 4.33 µM
GI50 [8]: 6.21 µM
